Positions of bridges follow the written chain, without caps; N, C: chain ends. Residues, ends and D or L forms follow the SMILES beside them.
Experiments:
[1] = tested on: chronic constipation (CC); conditions: Phase 2b studies for CC; four-week treatment period; cited from earlier work
[2] = Systemic levels of linaclotide after oral administration; type: in vivo; conditions: after oral administration at therapeutic dose levels
[3] = tested on: patients meeting modified Rome II criteria for constipation-predominant irritable bowel syndrome; assay: Trial 1 (LIN-MD-31): randomized, double-blind, placebo-controlled trial with 12-week treatment period and randomized withdrawal period; type: in vivo, human
Procedure: (§1) Linaclotide capsules from Example 4 were administered in two multicenter, randomized, double-blind, placebo-controlled parallel-group trials.
Trial 1 (LIN-MD-31) was conducted on approximately 800 patients meeting modified Rome II criteria for constipation-predominant irritable bowel syndrome. The trial included a two-week pretreatment baseline period, a 12-week treatment period, and a randomized withdrawal period (see FIG. 1A).
(§2) The Pretreatment Period is defined as the 14 to 21 calendar days immediately before starting the trial during which patients provided information related to their daily bowel habits, daily assessment of the symptom severity (such as, e.g., abdominal pain), constipation severity, and use of other medicines, laxatives, suppositories, and/or enemas. Patients who satisfied the necessary criteria were entered into the Treatment Period.
(§3) In both trials, the Treatment Period began with randomization. In Trial 1, treatment lasted for 12 weeks. In Trial 2, treatment lasted for 26 weeks. Patients were randomized to approximately equal-sized treatment groups consisting of 266 μg linaclotide or a placebo, taken once daily in the morning 30 minutes before breakfast. Patients continued to provide daily assessments such as their daily bowel habit assessments and daily patient symptom severity assessments.
(§4) In both trials, daily assessment data for patients in both treatment groups were compiled to give the following primary, co-primary and secondary treatment efficacy endpoints, which have been defined by United States and European regulatory agencies for the study of the efficacy of IBS-C.
(§5) A patient was classified as a 9/12 Week APC 3+1 Responder if they were a weekly APC 3+1 Responder for ≥9 out of the 12 (i.e., 9/12) weeks of the study.
(§6) A patient was classified as a 9/12 Week CSBM 3+1 Responder if they were a weekly CSBM 3+1 Responder for ≥9/12 weeks.
(§7) A patient was classified as a 9/12 Week Abdominal Pain Responder if they were a weekly Abdominal Pain Responder for ≥9/12 weeks.
(§8) A patient was classified as a 6/12 Week APC+1 Responder if they were a weekly APC+1 Responder for ≥6 out of the 12 (i.e., 6/12) weeks of the study.
(§9) Also compiled from the patient daily data were the following secondary efficacy endpoints: • Change From Baseline (i.e., change from pre-treatment period) in CSBM Frequency Rate (measured as a weekly rate); • Change From Baseline (“CFB”) in SBM Frequency Rate (weekly rate); • Change From Baseline in Stool Consistency (measured on a 7-point BSFS); • Change From Baseline in Severity of Straining (measured on a 5-point scale); • Change From Baseline in Abdominal Pain (measured on a 11-point numerical rating scale and scored 0-10); • Change From Baseline in Abdominal Discomfort (measured on […] numerical rating scale and scored 0-10); • Change From Baseline in Bloating (measured on a 11-point numerical rating scale and scored 0-10); • 6/12 Week CSBM+1 Responder; • 6/12 Week Abdominal Pain Responder; and • Change From Baseline in Percent of Abdominal Pain-free Days (Pain-free is a score of 0 on the 0-10 point scale).
Patients who were randomized to linaclotide in the Treatment Period and completed the 12 weeks of the Treatment Period, the RW Population, were randomized to treatment with linaclotide or placebo in the RW Period as follows: half of the RW Population received placebo for the first half of the RW Period followed by administration of 266 μg linaclotide; one quarter of the RW Population received 266 μg linaclotide for the entire RW Period and the remaining one quarter of the RW Population received 266 μg linaclotide for the first half of the RW Period and placebo for the remainder of the RW Period. Patients that were randomized to placebo in the Treatment Period and completed the 12 weeks of the Treatment Period received 266 μg linaclotide in the RW Period.

[4] = tested on: patients meeting modified Rome II criteria for constipation-predominant irritable bowel syndrome; assay: Trial 2 (MCP-103-302): randomized, double-blind, placebo-controlled trial with 26-week treatment period; type: in vivo, human
Procedure: as §1
Trial 2 (MCP-103-302) was conducted on approximately 805 patients meeting modified Rome II criteria for constipation-predominant irritable bowel syndrome (<3 CSBM/wk, ≤5 SBM/wk, abdominal pain≥3 on a 0-10 scale.) As in Trial 1, the trial included a two-week pretreatment baseline period; however, the treatment period was continued for 26 weeks rather than 12 weeks as in Trial 1, and no randomized withdrawal period was performed (see FIG. 1B).
as §2, §3, §4, §5, §6, §7, §8
In Trial 2, the above co-primary efficacy parameters, 12-week Abdominal Pain/Abdominal Discomfort Responder and 12-week IBS Degree of Relief Responder, were also computed for the full 26 week treatment period.
as §9

[5] = 266 μg linaclotide group, once daily, 12 weeks
[6] = 266 μg linaclotide group, once daily
[7] = 266 μg linaclotide group, once daily, first 12 weeks
[8] = 26-week treatment period, linaclotide-treated patients
[9] = after 12 weeks, linaclotide-treated patients
[10] = main secondary efficacy endpoint, full 26 week treatment period
[11] = throughout the 26-week treatment period, linaclotide-treated patients

## C[C@@H]1NC(=O)[C@@H]2CCCN2C(=O)[C@H](CC(N)=O)NC(=O)[C@@H]2CSSC[C@H](N)C(=O)N[C@H]3CSSC[C@H](NC1=O)C(=O)N[C@@H]([C@@H](C)O)C(=O)NCC(=O)N[C@H](C(=O)N[C@@H](Cc1ccc(O)cc1)C(=O)O)CSSC[C@H](NC(=O)[C@H](Cc1ccc(O)cc1)NC(=O)[C@H](CCC(=O)O)NC3=O)C(=O)N2 [linaclotide, Cys1 Cys2 Glu3 Tyr4 Cys5 Cys6 Asn7 Pro8 Ala9 Cys10 Thr11 Gly12 Cys13 Tyr14] (H-CCEYCCNPACTGCY-OH; disulfide 1-6, 2-10, 5-13)
[1]
  effect on constipation, abdominal discomfort and bloating: reduced constipation, abdominal discomfort, and bloating
[2]
  levels of linaclotide seen systemically: no detectable levels
[3]; [5]
  6/12-week APC+1 pain responder rate: 33.6%
  6/12-week abdominal pain responder rate: 50.1%
  6/12 week CSBM+1 responder rate: 48.6%
  9/12-week APC 3+1 responder rate: 12.1%
  9/12-week CSBM 3+1 responder rate: 19.5%
  9/12-week abdominal pain responder rate: 34.3%
  12-week Abdominal Pain/Abdominal Discomfort Responder: 54.8%
  12-week IBS Degree of Relief Responder: 37.0%
[3]; Randomized Withdrawal Period
  rebound of IBS-C symptoms following discontinuation of linaclotide treatment: no evidence of rebound of IBS-C symptoms
[3]; co-primary efficacy parameter
  12-week Abdominal Pain/Abdominal Discomfort Responder: Statistical Significance (266 μg vs. Placebo): Yes
  12-week IBS Degree of Relief Responder: Statistical Significance (266 μg vs. Placebo): Yes
[3]; linaclotide group
  adverse event: diarrhea with mild symptoms: 9%
  adverse event: diarrhea with moderate symptoms: 8%
  adverse event: diarrhea with severe symptoms: 2%
  overall rate of discontinuation due to adverse events: 8%
[3]; linaclotide treatment, FIG. 10
  patients reporting at least a 10% improvement in abdominal symptoms over 12 weeks: under 80%
[3]; linaclotide-treated patients
  adverse event: abdominal pain: 5%
  adverse event: diarrhea: 19%
  adverse event: flatulence: 5%
  adverse event: headache: 5%
[3]; on average, 12 weeks, FIG. 12C
  more CSBMs per week than with the placebo alone: about 1.5 CSBMs per week
[3]; on average, sustained throughout the treatment period
  time until abdominal pain was reduced over the pre-treatment baseline: 1 to 3 days
[3]; primary efficacy endpoint
  6/12 Week APC + 1 Responder: Statistical Significance (266 μg vs. Placebo): Yes
  9/12 Week APC 3 + 1 Responder: Statistical Significance (266 μg vs. Placebo): Yes
  9/12 Week Abdominal Pain Responder: Statistical Significance (266 μg vs. Placebo): Yes
  9/12 Week CSBM 3 + 1 Responder: Statistical Significance (266 μg vs. Placebo): Yes
[3]; secondary efficacy endpoint
  6/12 Week Abdominal Pain Responder: Statistical Significance (266 μg vs. Placebo): Yes
  6/12 Week CSBM + 1 Responder: Statistical Significance (266 μg vs. Placebo): Yes
  12-Week Abdominal Discomfort (CFB): Statistical Significance (266 μg vs. Placebo): Yes
  12-Week Abdominal Pain (CFB): Statistical Significance (266 μg vs. Placebo): Yes
  12-Week Bloating (CFB): Statistical Significance (266 μg vs. Placebo): Yes
  12-Week CSBM Frequency Rate(CFB): Statistical Significance (266 μg vs. Placebo): Yes
  12-Week Percent of Abdominal Pain-free Days (CFB): Statistical Significance (266 μg vs. Placebo): Yes
  12-Week SBM Frequency Rate (CFB): Statistical Significance (266 μg vs. Placebo): Yes
  12-Week Severity of Straining (CFB): Statistical Significance (266 μg vs. Placebo): Yes
  12-Week Stool Consistency (CFB): Statistical Significance (266 μg vs. Placebo): Yes
[4]; [6]
  12-week Abdominal Pain/Abdominal Discomfort Responder: 54.1%
  12-week IBS Degree of Relief Responder: 39.4%
[4]; [7]
  6/12-week APC+1 pain responder rate: 33.7%
  9/12-week APC 3+1 responder rate: 12.7%
  9/12-week CSBM 3+1 responder rate: 18.0%
  9/12-week abdominal pain responder rate: 38.9%
[4]; [8]
  overall rate of discontinuation due to adverse events: 10.2%
  patients discontinued due to diarrhea: 4.5%
[4]; after 12 weeks, linaclotide group
  overall rate of discontinuation due to adverse events: 9%
[4]; [9]
  adverse event: abdominal pain: 4%
  adverse event: diarrhea: 18%
  adverse event: flatulence: 3%
  adverse event: headache: 3%
[4]; co-primary efficacy parameter
  12-week Abdominal Pain/Abdominal Discomfort Responder: Statistical Significance (266 μg vs. Placebo): Yes
  12-week IBS Degree of Relief Responder: Statistical Significance (266 μg vs. Placebo): Yes
[4]; [10]
  26-week Abdominal Pain/Abdominal Discomfort Responder: Statistical Significance (266 μg vs. Placebo): Yes
  26-week IBS Degree of Relief Responder: Statistical Significance (266 μg vs. Placebo): Yes
[4]; on average, 12 weeks after treatment, FIG. 12C
  CSBMs per week compared with placebo: more CSBMs per week than with the placebo alone
[4]; on average, sustained throughout the 26 week treatment period
  time until abdominal pain was reduced over the pre-treatment baseline: 1 to 3 days
[4]; primary efficacy endpoint
  6/12 Week APC + 1 Responder: Statistical Significance (266 μg vs. Placebo): Yes
  9/12 Week APC 3 + 1 Responder: Statistical Significance (266 μg vs. Placebo): Yes
  9/12 Week Abdominal Pain Responder: Statistical Significance (266 μg vs. Placebo): Yes
  9/12 Week CSBM 3 + 1 Responder: Statistical Significance (266 μg vs. Placebo): Yes
[4]; secondary efficacy endpoint
  6/12 Week Abdominal Pain Responder: Statistical Significance (266 μg vs. Placebo): Yes
  6/12 Week CSBM + 1 Responder: Statistical Significance (266 μg vs. Placebo): Yes
  12-Week Abdominal Discomfort (CFB): Statistical Significance (266 μg vs. Placebo): Yes
  12-Week Abdominal Pain (CFB): Statistical Significance (266 μg vs. Placebo): Yes
  12-Week Bloating (CFB): Statistical Significance (266 μg vs. Placebo): Yes
  12-Week CSBM Frequency Rate(CFB): Statistical Significance (266 μg vs. Placebo): Yes
  12-Week Percent of Abdominal Pain-free Days (CFB): Statistical Significance (266 μg vs. Placebo): Yes
  12-Week SBM Frequency Rate (CFB): Statistical Significance (266 μg vs. Placebo): Yes
  12-Week Severity of Straining (CFB): Statistical Significance (266 μg vs. Placebo): Yes
  12-Week Stool Consistency (CFB): Statistical Significance (266 μg vs. Placebo): Yes
[4]; [11]
  adverse event: abdominal pain: 4.5%
  adverse event: diarrhea: 19.7%
  adverse event: flatulence: 3.7%
  adverse event: headache: 3.2%
  adverse event: viral gastroenteritis: 3.7%
